In patent publication US7015323B2, “Thiocarbamate inhibitors of alpha-4 integrins” (Genentech, Inc., priority 2003, dated 2006):

Experiment: Clearance and half life: pharmacokinetics after IV or PO dosing, plasma measured by LC/MS/MS
Format: in vivo
Details: rat; for clearance: clearance from plasma levels (LC/MS/MS, WinNonlin), PEG 400 formulation, route for the table values not stated; for half-life: half life from plasma levels (LC/MS/MS, WinNonlin), route not stated
Method: Jugular Vein Cannulation—Animals are anesthetized via IP injection using Ketamine/Xylazine/saline solution (@ 0.25 mL/kg). Animals are weighed prior to dosing of anesthetic to determine proper dosage. Sterile instruments and aseptic technique are used throughout surgery. This includes wearing a mask, clean lab coat or scrubs and sterile gloves. The ventral and dorsal neck areas are shaved and prepped with betadine and alcohol. A small skin incision is made over the jugular vein. Using blunt dissection techniques, free the intended vessel from surrounding tissue and thread two sutures under the vein. Tie the cranial suture, nick the vessel, insert the catheter, and use the distal suture to secure the catheter. Dissect a subcutaneous passage between the catheter insertion point and the intrascapular space; make a small exit hole at the nape of the neck. Then, using hemastats, pull the cannula through the passage to the dorsal neck area. Confirm that the catheter is still properly placed, flush with appropriate heparin/saline solution, and knot the distal end of the cannula. Place a suture tie around the knot, coil the cannula under the skin and close the dorsal incision, leaving the “tie” slightly exposed for ease of externalizing the catheter. Close the ventral incision. The animal should be recovered on a circulating heating blanket or equivalent and returned to its room when it's able to right itself.
Compounds are formulated with polyethylene glycol 400 (PEG) at 30% (IV) or 60% (PO).
Intravenous (IV) dosing is accomplished with a bolus injection into a lateral tail vein. Animals are restrained using a rat restrainer to minimize mis-dosings and to reduce animal stress. Individual doses are calculated based on body weights taken the morning of the dose. Oral (PO) dosing is accomplished by oral gavage using a 3½ inch stainless steel animal feeding tube. Animals are restrained by grasping gently with our hands to reduce animal stress. Individual doses are calculated based on body weights taken the morning of the dose.
Blood (approximately 0.2 mL) is collected from an jugular cannula. For occasions when the jugular cannula fails, blood is removed from the remaining lateral tail vein. The whole blood was placed into Microtainer® tubes containing K2EDTA anticoagulant. Samples are inverted several times to ensure proper mixing with anticoagulant and are stored on ice until centrifugation. Samples are centrifuged at 10,000×g for 5 minutes and plasma is transferred to 1.5 mL microcentrifuge tube. […]
All plasma samples are measured by LC/MS/MS. All pharmacokinetic parameters, clearance (CL), half life (t½), area under curve (AUC) and maximum conc (Cmax) are determined using WinNonin (version 3.2).

| Compound | clearance | half-life |
| --- | --- | --- |
| O=C(N[C@@H](Cc1ccc(OC(=S)N2CCOCC2)cc1)C(=O)O)c1ccccc1Cl [compound 1] | 23 mL/min/kg | 61 min |
| O=C(N[C@@H](Cc1ccc(OC(=O)N2CCOCC2)cc1)C(=O)O)c1ccccc1Cl [referencecarbamate] | 50 mL/min/kg | 6 min |
